# Assay results published in patent publication US9482924B2, “Colored composition and image display structure” (FUJIFILM CORPORATION, priority 2011, dated 2016).
# Columns and labels:
# [1] = Absorption maximum wavelength, absorbance and absorption coefficient of colored solution; type: physicochemical; conditions: n-hexane colored solution; for Absorption coefficient (ε): calculated in accordance with the Lambert-Beer law
# Procedure: Azomethine pigments (preparing the above exemplified compounds D-1, D-5, D-11, D-20, D-26, D-38, D-43, D-46, D-49, D-55, D-56, D-57 and D-65 shown in the following Table) and n-hexane as an organic solvent were mixed to prepare a 15% by mass azomethine pigment-n-hexane solution (colored composition), thereby manufacturing 13 kinds of colored solutions.
# For the colored solution (colored composition), the absorption maximum wavelength (λmax) and the absorbance were measured with a visible light absorbance spectrometer (UV-1800PC, manufactured by Shimadzu Corporation) and the absorption coefficient (ε) was calculated in accordance with the Lambert-Beer law.
# [2] = Measurement of dynamic viscosity; type: physicochemical; conditions: solution of 10% by mass of pigment in decane
# Procedure: Note that, the dynamic viscosity is a value measured by adjusting a solution at 10% by mass of the pigment in decane to 20° C. using a viscometer (500 TYPE, manufactured by Toki Sangyo Co., Ltd.).
# For the azomethine pigments shown in the following Table 7, a solution of 10% by mass of each pigment in decane was prepared and an R-type viscometer (500 TYPE, manufactured by Toki Sangyo Co., Ltd.) was used to measure the viscosity thereof at 20° C.
# [3] = Measurement of relative permittivity; type: physicochemical; conditions: pigment itself, extrapolated from 5, 7.5 and 10% by mass solutions in n-hexane; 20° C., 40% RH, 1 kHz
# Procedure: The relative permittivity is a value obtained by injecting the colored composition into a glass cell having a cell gap of 10 μm to which an indium tin oxide (ITO) transparent electrode is attached and measuring, at 20° C. and 40% RH, the electric capacitance of the cell with the colored composition thus-obtained using a TYPE 2353LCR METER (measuring frequency: 1 kHz) manufactured by NF Co., Ltd.
# The azomethine pigments shown in the following Table 7 were prepared and solutions of 5% by mass, 7.5% by mass and 10% by mass of each pigment dissolved in n-hexane (all were colored solutions) were prepared. Each colored solution obtained was injected into a glass cell having a cell gap of 10 μm to which an indium tin oxide (ITO) transparent electrode was attached. For each of the glass cells, the electric capacitance was measured (measuring frequency: 1 kHz). Further, a cell for reference was prepared by injecting only n-hexane into a glass cell which was the same kind of glass cell as described above, and the electric capacitance of the cell for reference was also measured. The electric capacitance of the cell obtained was measured at 20° C. and 40% RH using a type 2353LCR meter (measuring frequency: 1 kHz) manufacture by NF Co., Ltd.
# The relative permittivity of each colored solution was obtained by the above measurement, and the relative permittivity of each azomethine pigment itself was calculated from the above relative permittivity by extrapolation.
# Solubility in n-hexane = conditions: in n-hexane at 25° C. and 0.1 MPa
# Procedure: Hereinafter, “a solubility in n-hexane at 25° C. and 0.1 MPa” of a pigment is also simply referred to as “solubility”.
# The solubility of each azomethine pigment in n-hexane, which is a non-polar solvent, was measured by the following method.
# Each pigment was dissolved in n-hexane that had been heated to 50° C. to prepare a saturated solution, and then the saturated solution obtained was left to stand in an environment of 0.1 MPa at 25° C. for 1 hour. The precipitated pigment was filtered and the precipitation amount was measured, thereby calculating the solubility (% by mass) of each pigment in n-hexane at 25° C. and 0.1 MPa.
SMILES,Absorption maximum wavelength [λmax] [1] [nm],Absorption coefficient (ε) [1],Viscosity (20° C.) [2] [mPa · s],Relative permittivity [3],Solubility (% by mass) (Solubility in n-hexane)
CCCCCCCCN(CCCCCCCC)c1ccc(N=C2C(=O)N(c3ccccc3)N=C2C)c(C)c1 [Pigment D-1],500,6.05 × 10^4,1.3,8.6,9.5 % by mass
CCCCCCCCN1N=C(C(C)(C)C)C(=Nc2ccc(N(CC)CC)cc2C)C1=O [Pigment D-5],502,5.20 × 10^4,–,–,8.5 % by mass
CCCCCCN(CCCCCC)c1ccc(N=C2C(=O)N(c3ccccc3)N=C2C(C)(C)C)c(C)c1 [Pigment D-11],502,5.60 × 10^4,–,–,1.1 % by mass
CCCCCCCCOc1cc(N(CCCC)CCCC)ccc1N=C1C(=O)ON=C1c1ccccc1 [Pigment D-20],480,4.80 × 10^4,1.2,8.8,–
CCCCCCCCNC(=O)C1=CC(=Nc2ccc(N(CCCCCCCC)CCCCCCCC)cc2)C=C(C)C1=O [Pigment D-26],626,2.8 × 10^4,1.4,6,–
CCCCCCCCCCCCCCCCNC(=O)C1=CC(=Nc2ccc(N(CC)CC)cc2CC)c2ccccc2C1=O [Pigment D-38],630,2.9 × 10^4,1.5,4.4,–
CCCCCCCCCCCCCCCCCCNC(=O)C1=CC(=Nc2ccc(N(CC)CC)cc2OC)c2ccccc2C1=O [Pigment D-43],658,2.6 × 10^4,1.5,4.7,–
CCCCCCN(CCCCCC)c1ccc(N=C2C=C(C(=O)Nc3ccccc3)C(=O)c3ccccc32)c(C)c1 [Pigment D-46],635,2.8 × 10^4,–,–,–
CCCCCCCCN(CCCCCCCC)c1ccc(N=C2C(C(C)(C)C)=Nn3nc(-c4ccccc4)nc32)c(C)c1 [Pigment D-49],518,7.2 × 10^4,1.2,6.7,11 % by mass

# Continued, values first:
Absorption maximum wavelength [λmax] [1] [nm],Absorption coefficient (ε) [1],Viscosity (20° C.) [2] [mPa · s],Relative permittivity [3],Solubility (% by mass) (Solubility in n-hexane),SMILES
550,7.2 × 10^4,–,–,3.5 % by mass,CCCCCCOc1cc(N(CCCCCC)CCCCCC)ccc1N=C1C(C#N)=Nn2nc(C(C)(C)C)nc21 [Pigment D-56]
540,7.55 × 10^4,1.2,6.2,12.3 % by mass,CCCCCCCCN1CCc2cc(/N=C3/C(C)=Nn4nc(C(C)CNC(=O)C(CCCCCC)Oc5ccc(C(C)(C)CC)cc5C(C)(C)CC)nc43)ccc21 [Pigment D-57]
725,6.8 × 10^4,–,–,≥ 15.0 % by mass,CCCCCCN(CCCCCC)c1cc(C)c(N=C2C(C#N)=C(C(=O)OC3C(C(C)(C)C)CC(C)CC3C(C)(C)C)c3nc(C(C)(C)C)nn32)c(C)c1 [Pigment D-65]
–,–,–,–,0.05 or less % by mass,"CCN(CC)c1ccc(N=C2C(=O)N(c3ccccc3)N=C2C)c(C)c1 [Pigment D-101, reference compound]"
–,–,–,–,≤ 0.05 % by mass,"CCN(CC)c1ccc(N=C2C(=O)ON=C2C(C)(C)C)cc1 [Pigment D-102, reference compound]"
–,–,–,–,≤ 0.05 % by mass,"CCN(CC)c1ccc(N=C2C=C(NC(C)=O)C(=O)C(Cl)=C2C)c(C)c1 [Pigment D-103, reference compound]"
–,–,–,–,≤ 0.05 % by mass,"CCCCN(CCCC)c1ccc(N=C2C=C(C(=O)NC)C(=O)c3ccccc32)cc1 [Pigment D-104, reference compound]"
–,–,–,–,≤ 0.05 % by mass,"CCN(CC)c1ccc(/N=C2\C(C#N)=C(C(=O)OC)c3nc(-c4ccc(C(C)(C)C)cc4)nn32)c(C)c1 [Pigment D-106, reference compound]"
